Assay results as given in patent US20210401987A1, “METHODS AND COMPOSITIONS FOR TREATING INFLAMMATORY AND FIBROTIC PULMONARY DISORDERS” (University of Houston System, priority 2020, published 2021).

Experiments:
[1] = tested on: human airway microvasculature endothelial cells; assay: Endothelial cell activation assessed by expression of Vcam1 (CD106); type: cell-based; conditions: IL-13 challenge of human lung endothelial cells
Excerpt: Given the robust inflammatory response triggered by xenografts of COPD clone libraries, the inventors asked if this inflammatory activity was a function of one or more of the constituent clone types. Using pathway enrichment analysis algorithms for the gene expression profiles of the four clone types, the multiple inflammatory pathways highlighted in clones of Cluster 4 was striking including Antigen Presentation, Interferon Signaling, Graft-vs-Host responses, and Dendritic Cell Maturation among others, and their relative absence from clones of Clusters 1, 2, and 3 (FIG. 5A; FIG. 12A). The inventors tested media conditioned by clones of Clusters 1-4 for their ability to trigger phase I and II activation of human airway microvasculature endothelial cells, an essential step in leukocyte recruitment (Filippi, 2016). […] In this same assay media conditioned by Cluster 2 (GCM) or Cluster 3 (SCM) clones, respectively, yielded 4- and 10-fold inductions of VCAM1, and while media from Cluster 4 (iSCM) clones induced Vcam1 by 60-fold (FIG. 12B).

[2] = molecular target: STAT3 (Homo sapiens, UniProt P40763); conditions: cited from earlier work
Chain of STAT3 (P40763 whole entry): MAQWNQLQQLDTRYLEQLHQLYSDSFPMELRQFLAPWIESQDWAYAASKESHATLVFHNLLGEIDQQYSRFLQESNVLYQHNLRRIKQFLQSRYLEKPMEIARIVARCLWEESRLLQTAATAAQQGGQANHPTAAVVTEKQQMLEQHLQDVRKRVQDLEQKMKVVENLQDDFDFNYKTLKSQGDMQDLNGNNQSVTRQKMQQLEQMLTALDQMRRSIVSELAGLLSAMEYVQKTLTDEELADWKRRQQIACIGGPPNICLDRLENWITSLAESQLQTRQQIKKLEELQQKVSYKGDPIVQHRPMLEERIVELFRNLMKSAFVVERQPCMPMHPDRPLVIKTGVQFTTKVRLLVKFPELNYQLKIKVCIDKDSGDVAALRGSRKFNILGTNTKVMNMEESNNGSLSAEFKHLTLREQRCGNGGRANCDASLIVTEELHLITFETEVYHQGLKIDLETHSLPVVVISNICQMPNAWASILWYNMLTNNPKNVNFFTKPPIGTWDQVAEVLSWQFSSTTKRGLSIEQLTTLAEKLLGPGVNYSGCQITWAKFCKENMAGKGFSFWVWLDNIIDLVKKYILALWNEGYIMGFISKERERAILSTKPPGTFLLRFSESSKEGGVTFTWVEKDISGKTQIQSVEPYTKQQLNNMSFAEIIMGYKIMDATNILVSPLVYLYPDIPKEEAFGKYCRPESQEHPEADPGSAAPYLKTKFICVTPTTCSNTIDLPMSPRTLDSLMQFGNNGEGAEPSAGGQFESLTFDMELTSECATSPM

[3] = tested on: ERBB2; conditions: cited from earlier work

Molecule: IL-13: Human IL-13 Recombinant Protein
- induction of Vcam1 [1]: 30 fold

Molecule: O=[N+]([O-])c1ccc2c(c1)S(=O)(=O)C=C2 [Stattic]
- IC50 ([2]; cell-free assays, read-out: IC50 of STAT3 activation and nuclear translocation): 5.1 µM
- selectivity over STAT1 [2]: highly selectivity over STAT1

Molecule: C=CC(=O)Nc1cccc(Sc2nc(Nc3ccc(N4CCN(C)CC4)cc3)ncc2Cl)c1 [WZ8040]
- inhibition of ERBB2 phosphorylation [3]: does not inhibit
